Measured values from PMC8835884 (2022).
Blank lines part the entries; values can stand above or below the compound they belong to.

What was measured:
[1] = test system: TQ3/Cy3-fl (RNA, riboswitch, aminoallyl-U conjugated to TQ3 at 24; Cy3-C at 55) GGGAAGAUAUAAUCCUAAUGAUAUGGUUUGGGAGUUUCUACCAAGAGCCUUAAACUCUUGAUUAUCUUCUCUGUCGCUUUAUCCCAAAUUUUAUAAAGAGAAGACUCAUGAAU; assay: Cy3-TQ3 FRET quenching titration, steady-state fluorescence; settings: Mg2+ not stated
[2] = test system: TQ3/Cy3-apt (RNA, riboswitch, aminoallyl-U conjugated to TQ3 at 24; Cy3-C at 55) GGGAAGAUAUAAUCCUAAUGAUAUGGUUUGGGAGUUUCUACCAAGAGCCUUAAACUCUUGAUUAUCUUCCC; assay: Cy3-TQ3 FRET quenching titration, steady-state fluorescence, sigmoidal fit; settings: 100 mM KCl, 2 mM MgCl2; 10 mM HEPES, pH 7.5; 0.4 μM RNA; apparent
[3] = test system: TQ3/Cy3-fl (RNA, riboswitch, aminoallyl-U conjugated to TQ3 at 24; Cy3-C at 55) GGGAAGAUAUAAUCCUAAUGAUAUGGUUUGGGAGUUUCUACCAAGAGCCUUAAACUCUUGAUUAUCUUCUCUGUCGCUUUAUCCCAAAUUUUAUAAAGAGAAGACUCAUGAAU; assay: as above; settings: 100 mM KCl, 2 mM MgCl2; 10 mM HEPES, pH 7.5; 0.4 μM RNA; apparent

binding ([1]; tested up to 1 mM guanine): no
SMILES: Nc1nc2[nH]cnc2c(=O)[nH]1

binding ([1]; tested up to 1 mM ATP): no
SMILES: Nc1ncnc2c1ncn2[C@@H]1O[C@H](COP(=O)(O)OP(=O)(O)OP(=O)(O)O)[C@@H](O)[C@H]1O

KD [2]: 61.833 ± 0.621 µM | KD [3]: 15.826 ± 0.287 µM
SMILES: Nc1ncnc2[nH]cnc12
